Data on three compounds can be found in patent US8710099B2, “Treatment of cancer using the sodium salt of a benzoic acid derivative” (New York University, priority 2009, dated 2014).

Series [1] concerns B16F10 melanoma cells. As to the kind of experiment: In vivo tumor growth of B16F10 xenografts in nude mice. The conditions noted are these: daily i.p. for 15 days, TAXOL® 0.5 μM, C-45 100 μg; FIG. 4. The procedure: In addition, tumor growth in vivo of xenografts of B16F10 melanoma cells in nude mice was determined Briefly, subconfluent cultures of B16F10 cells were harvested, washed, and resuspended in sterile PBS. Female nude mice were injected subcutaneously with 1×10^6 cells per mouse and tumors were allowed to grow for 3 days. After 3 days, mice were either untreated or treated daily for 15 days by intraperitoneal injection of TAXOL® (0.5 μM), C-45 (100 μg), or a combination of TAXOL® and C-45. Tumor growth was determined weekly by caliper measurements. After 15 days, the mice were sacrificed and tumor volume was determined by standard methods using the formula […], where V=volume, L=length, and W=width.

Series [2] concerns Lewis Lung carcinoma cells. Briefly: Tumor cell proliferation, WST-1 tetrazolium salt cleavage. In kind it is cell-based. The note with it: 50 μg/ml test compound, 0.01 μM TAXOL®; vs untreated control; FIG. 3B. The procedure: (§1) Tumor cell proliferation was assessed by monitoring mitochondrial dehydrogenase activity as detected by tetrazolium salt cleavage using a commercially available kit (WST-1; Roche, Indianapolis, Ind.). Briefly, B16F10 melanoma cells, Lewis Lung carcinoma cells, and 4T1 breast carcinoma cells (1×10^6) were resuspended in PABA-free growth medium supplemented with 2.0% fetal bovine serum and 50 μg/ml of test compound (as shown in FIG. 1) Following incubation for 3 days, the cells were either treated or not treated with 0.01 μM TAXOL® and incubated for an additional 48 hours. Proliferation was measured; data points represent the mean optical density at 490 nm±SD from triplicate wells.

Series [3] concerns 4T1 breast carcinoma cells. The series is described as above. It counts as cell-based. The conditions noted are these: 50 μg/ml test compound, 0.01 μM TAXOL®; vs untreated control; FIG. 3C. The procedure: as §1
For series [4], the system named is B16F10 melanoma cells. The description is as above. The note with it: 50 μg/ml test compound, 0.01 μM TAXOL®; vs untreated control; FIG. 3A. In kind it is cell-based. As to the method: as §1
Series [5] has as its system B16F10 melanoma cells. Briefly: Chick embryo tumor growth model. The conditions noted are these: for growth of the B16F10 tumors: 50 μg/ml C-45, TAXOL® 0.01 μM, FIG. 5B. In kind it is in vivo, chick embryos. As to the method: The chick embryo tumor growth model was used to determine whether C-45 enhances the ability of TAXOL® or ionizing radiation to inhibit tumor growth. Briefly, B16F10 melanoma cells were cultured in growth medium in the presence or absence of 50 μg/ml C-45 for at least 7 days. Following harvesting and washing, about 2×10^5 tumor cells were implanted onto the chorioallontoic membranes of 10 day-old chick embryos and incubated for at least 24 hours. Following incubation, the embryos were treated with either a single fractionated dose of radiation (5.0 Gy) or TAXOL® (paclitaxel) (0.01 μM) and incubated for an additional 7 days. The embryos were sacrificed and tumors were resected and weighed (5-10 embryos per condition).

The test system of series [6] is tyrosinase (from mushrooms). Briefly: Purified tyrosinase activity, DOPAchrome formation. It counts as biochemical. The conditions noted are these: 8.0 mM, up to 10 minutes; FIG. 2. The procedure: Activity of purified tyrosinase was measured by monitoring the formation of DOPAchrome. Briefly, a fixed concentration of L-DOPA (8.0 mM) was incubated with 800 U/ml tyrosinase (from mushrooms-Sigma, St. Louis, Mo.) in the absence or presence of increasing concentrations of PABA, compound 44 (C-44) and compound 45 (C-45) (see FIG. 1 for structures) for indicated time points (see FIG. 2 for concentrations and time points). At each time point, 100 μl of the reaction mixture was measured. Data points represent the mean optical density at 475 nm±SD from triplicate wells.

For a further series, the target named is T1, PXR/SXR receptor (Homo sapiens, UniProt O75469).
T1 sequence (O75469 1-434): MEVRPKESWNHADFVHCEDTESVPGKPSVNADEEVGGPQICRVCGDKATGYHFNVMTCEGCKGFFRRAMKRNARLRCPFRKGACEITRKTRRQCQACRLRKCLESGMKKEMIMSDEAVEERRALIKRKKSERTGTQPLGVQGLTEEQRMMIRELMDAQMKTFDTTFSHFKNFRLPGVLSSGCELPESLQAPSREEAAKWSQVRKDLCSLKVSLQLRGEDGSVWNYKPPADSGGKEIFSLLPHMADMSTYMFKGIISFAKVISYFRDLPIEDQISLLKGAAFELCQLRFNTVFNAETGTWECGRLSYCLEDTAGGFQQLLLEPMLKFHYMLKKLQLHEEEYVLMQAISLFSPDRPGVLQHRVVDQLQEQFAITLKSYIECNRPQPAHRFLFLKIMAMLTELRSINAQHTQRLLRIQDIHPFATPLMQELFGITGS
The note with it: Moore et al., Mol. Endocrinol. 2002; cited from earlier work.

For series [7], the system named is G361 human melanoma cells. Briefly: Protein expression in PABA-treated G361 melanoma cells (data not shown). The note with it: G361 cells treated with PABA. In kind it is cell-based.

In the case of `C=CCNc1ccc(C(=O)O)cc1` [C-45, 4-allylaminobenzoic acid], the “in vivo tumor growth compared to untreated controls” value in the series on B16F10 melanoma cells [1] is “neither TAXOL® nor C-45 inhibited in vivo tumor growth”. For the same compound, the “in vitro proliferation of Lewis Lung carcinoma cells” value in series [2] was “inhibited in vitro proliferation”. For the same compound, the “in vitro proliferation of 4T1 breast carcinoma cells” value in series [3] is listed as “inhibited in vitro proliferation”. The “in vitro proliferation of B16F10 cells” value in the series on B16F10 melanoma cells [4] is recorded as “inhibited in vitro proliferation”. Further, the “growth of the B16F10 tumors” value with B16F10 melanoma cells [5] is reported as “inhibited the growth of the B16F10 tumors significantly”. Moreover, the “tumor growth in vivo, combination with radiation” value with B16F10 melanoma cells [5] (50 μg/ml C-45 plus single dose of radiation 5.0 Gy, FIG. 5A) was “even more effective at inhibiting tumor growth”. In addition, in the series on B16F10 melanoma cells [5] (cells cultured with 50 μg/ml C-45, C-45 alone, FIG. 5A), the tumor weight entry is reported as “reduced tumor weight significantly”. Further, the tyrosinase activity entry in series [6] is “inhibited tyrosinase activity”.
For the compound `Nc1ccc(C(=O)O)cc1` [PABA, para-amino-benzoic-acid], at PXR/SXR receptor, the “binding to the PXR/SXR receptor” value was “bind to the PXR/SXR receptor”. Also, the tyrosinase activity result in series [6] is “inhibited tyrosinase activity”. For the same compound, in series [7], the “expression of cell-cycle progression checkpoint protein CDC25A” value was “increase expression” and the “protein expression of DNA repair protein BRCA-2” value was “decreased protein expression”.
In the case of `CC(=O)O[C@H]1C(=O)[C@@]2(C)[C@H]([C@H](OC(=O)c3ccccc3)[C@]3(O)C[C@H](OC(=O)[C@H](O)[C@@H](NC(=O)c4ccccc4)c4ccccc4)C(C)=C1C3(C)C)[C@]1(OC(C)=O)CO[C@@H]1C[C@@H]2O` [TAXOL®, paclitaxel, reference compound], in the series on B16F10 melanoma cells [1], the “in vivo tumor growth compared to untreated controls” value is recorded as “neither TAXOL® nor C-45 inhibited in vivo tumor growth”. The “in vitro proliferation of Lewis Lung carcinoma cells” value in series [2] is given as “inhibited in vitro proliferation”. Besides, the “in vitro proliferation of 4T1 breast carcinoma cells” value in series [3] is on record as “inhibited in vitro proliferation”. In the series with B16F10 melanoma cells [4], the “in vitro proliferation of B16F10 cells” value is listed as “inhibited in vitro proliferation”. For the same compound, the “growth of the B16F10 tumors” value in the series on B16F10 melanoma cells [5] is “inhibited the growth of the B16F10 tumors significantly”.
